In ChEMBL document CHEMBL5260845, “Flavone-based arylamides as potential anticancers: Design, synthesis and in vitro cell-based/cell-free evaluations” (2020):
Activity calls are given as the source filed them. No cut-off for these calls is given here.

Legend:
MDA-MB-435 = assay: Antiproliferative activity against human MDA-MB-435 cells assessed as cell growth inhibition at 10 uM by SRB assay; assay type: functional, cell-based
M14 [1] = assay: Antiproliferative activity against human M14 cells assessed as cell growth inhibition at 10 uM by SRB assay relative to control; assay type: functional
Malme-3M = assay: Antiproliferative activity against human Malme-3M cells assessed as cell growth inhibition at 10 uM by SRB assay; assay type: functional, cell-based
UACC-257 = assay: Antiproliferative activity against human UACC-257 cells assessed as cell growth inhibition at 10 uM by SRB assay relative to control; assay type: functional
LOX IMVI [2] = assay: Antiproliferative activity against human LOX IMVI cells assessed as cell growth inhibition at 10 uM by SRB assay relative to control; assay type: functional
SK-MEL-28 = assay: Antiproliferative activity against human SK-MEL-28 cells assessed as cell growth inhibition at 10 uM by SRB assay; assay type: functional, cell-based
UACC-62 = assay: Antiproliferative activity against human UACC-62 cells assessed as cell growth inhibition at 10 uM by SRB assay relative to control; assay type: functional
SK-MEL-2 = assay: Antiproliferative activity against human SK-MEL-2 cells assessed as cell growth inhibition at 10 uM by SRB assay relative to control; assay type: functional; settings: Homo sapiens, SK-MEL-2, dose 10 µM
SK-MEL-5 = assay: Antiproliferative activity against human SK-MEL-5 cells assessed as cell growth inhibition at 10 uM by SRB assay; assay type: functional, cell-based
LOX IMVI [3] = assay: Antiproliferative activity against human LOX IMVI cells assessed as cell growth inhibition at 10 uM by SRB assay; assay type: functional, cell-based
Prostatic carcinoma cell = assay: Antiproliferative activity against human prostatic carcinoma cells assessed as cell growth inhibition at 10 uM by SRB assay relative to control; assay type: functional
NCI-H522 = assay: Antiproliferative activity against human NCI-H522 cells assessed as cell growth inhibition at 10 uM by SRB assay; assay type: functional, cell-based
HCT-116 = assay: Antiproliferative activity against human HCT-116 cells assessed as cell growth inhibition at 10 uM by SRB assay relative to control; assay type: functional
HL-60 = assay: Antiproliferative activity against human HL-60 cells assessed as cell growth inhibition at 10 uM by SRB assay; assay type: functional, cell-based
Hs-578T = assay: Antiproliferative activity against human Hs-578T cells assessed as inhibition of cell growth at 10 uM by SRB assay; assay type: functional, cell-based
EKVX = assay: Antiproliferative activity against human EKVX cells assessed as cell growth inhibition at 10 uM by SRB assay; assay type: functional
CCRF-CEM = assay: Antiproliferative activity against human CCRF-CEM cells assessed as cell growth inhibition at 10 uM by SRB assay; assay type: functional, cell-based
M14 [4] = assay: Antiproliferative activity against human M14 cells assessed as cell growth inhibition at 10 uM by SRB assay; assay type: functional, cell-based
NCI-H23 = assay: Antiproliferative activity against human NCI-H23 cells assessed as cell growth inhibition at 10 uM by SRB assay; assay type: functional
[5] = Antiproliferative activity against human colon cancer cells assessed as cell growth inhibition at 10 uM by SRB assay relative to control; assay type: functional; settings: Colon carcinoma cell
SR = assay: Antiproliferative activity against human SR cells assessed as cell growth inhibition at 10 uM by SRB assay; assay type: functional, cell-based
HOP-92 = assay: Antiproliferative activity against human HOP-92 cells assessed as cell growth inhibition at 10 uM by SRB assay; assay type: functional, cell-based
ACHN = assay: Antiproliferative activity against human ACHN cells assessed as inhibition of cell growth at 10 uM by SRB assay relative to control; assay type: functional; settings: pooled result: one value given for 2 cell lines, strains, targets or settings
[6] = Antiproliferative activity against human hematologic cancer cells assessed as cell growth inhibition at 10 uM by SRB assay relative to control; assay type: functional
SF-295 = assay: Antiproliferative activity against human SF-295 cells assessed as cell growth inhibition at 10 uM by SRB assay; assay type: functional, cell-based
MOLT-4 = assay: Antiproliferative activity against human MOLT-4 cells assessed as cell growth inhibition at 10 uM by SRB assay; assay type: functional, cell-based
CAKI-1 = assay: Antiproliferative activity against human CAKI-1 cells assessed as inhibition of cell growth at 10 uM by SRB assay relative to control; assay type: functional
Renal cancer cell line = assay: Antiproliferative activity against human renal cancer cells assessed as cell growth inhibition at 10 uM by SRB assay relative to control; assay type: functional
RXF 393 = assay: Antiproliferative activity against human RXF 393 cells assessed as inhibition of cell growth at 10 uM by SRB assay relative to control; assay type: functional
T47D = assay: Antiproliferative activity against estrogen receptor positive human T47D cells assessed as inhibition of cell growth at 10 uM by SRB assay relative to control; assay type: functional
RPMI-8226 [7] = assay: Antiproliferative activity against human RPMI-8226 cells assessed as cell growth inhibition at 10 uM by SRB assay; assay type: functional, cell-based
K562 = assay: Antiproliferative activity against human K562 cells assessed as cell growth inhibition at 10 uM by SRB assay; assay type: functional, cell-based
NCI-H226 = assay: Antiproliferative activity against human NCI-H226 cells assessed as cell growth inhibition at 10 uM by SRB assay; assay type: functional
SF-539 = assay: Antiproliferative activity against temozolomide resistant human SF-539 cells assessed as cell growth inhibition at 10 uM by SRB assay; assay type: functional, cell-based
RPMI-8226 [8] = assay: Antiproliferative activity against human RPMI-8226 cells assessed as cell growth inhibition at 10 uM by SRB assay relative to control; assay type: functional
SNB-75 = assay: Antiproliferative activity against temozolomide resistant human SNB-75 cells assessed as cell growth inhibition at 10 uM by SRB assay; assay type: functional, cell-based
OVCAR-4 = assay: Antiproliferative activity against human OVCAR-4 cells assessed as cell growth inhibition at 10 uM by SRB assay relative to control; assay type: functional
SK-OV-3 = assay: Antiproliferative activity against human SK-OV-3 cells assessed as inhibition of cell growth at 10 uM by SRB assay relative to control; assay type: functional

In the case of `CN(C)/N=N/c1[nH]cnc1C(N)=O` [DACARBAZINE], the inhibition (MDA-MB-435) was “inactive”, the inhibition at 10 µM (M14 [1]) was 36.5% and the inhibition (Malme-3M) was “inactive”. The inhibition at 10 µM (UACC-257) was 15%, the inhibition at 10 µM (LOX IMVI [2]) was 49.3% and the inhibition (SK-MEL-28) was “inactive”. For the same compound, the inhibition at 10 µM (UACC-62) was 25.6%, the inhibition at 10 µM (SK-MEL-2) was 15% and the inhibition (SK-MEL-5) was “inactive”.
With `COc1cc2oc(-c3cccc(NC(=O)c4ccc(Cl)cc4)c3)cc(=O)c2c(OC)c1OC` the inhibition (LOX IMVI [3]) was “Active”, the inhibition at 10 µM (Prostatic carcinoma cell) was > 50% and the inhibition (NCI-H522) was “Active”. The inhibition at 10 µM (HCT-116) was 88%, the inhibition (HL-60) was “Active” and the inhibition (Hs-578T) was “Active”. The inhibition at 10 µM (EKVX) was < 50%, the inhibition (CCRF-CEM) was “Active” and the inhibition (M14 [4]) was “Active”. The inhibition (Malme-3M) was “Active”, the inhibition at 10 µM (NCI-H23) was < 50% and the inhibition at 10 µM [5] was > 50%. The inhibition (SR) was “Active”, the inhibition (HOP-92) was “Active” and the inhibition at 10 µM (ACHN) was 51.1%. The inhibition at 10 µM [6] was > 50%, the inhibition (SF-295) was “Active” and the inhibition (MOLT-4) was “Active”. The inhibition at 10 µM (CAKI-1) was 51.1%, the inhibition at 10 µM (Renal cancer cell line) was > 50% and the inhibition at 10 µM (SK-MEL-2) was ≤ 46%. For the same compound, the inhibition at 10 µM (RXF 393) was 51.1%, the inhibition at 10 µM (T47D) was 62.2% and the inhibition (RPMI-8226 [7]) was “Active”. The inhibition (K562) was “Active” and the inhibition at 10 µM (NCI-H226) was < 50%.
In the case of `COc1cc2oc(-c3cccc(C(=O)Nc4ccc(C)cc4)c3)cc(=O)c2c(O)c1OC`, the inhibition (SF-539) was “Active”, the inhibition at 10 µM (RPMI-8226 [8]) was 82.6% and the inhibition (SNB-75) was “Active”.
`CC(=O)O[C@H]1C(=O)[C@@]2(C)[C@H]([C@H](OC(=O)c3ccccc3)[C@]3(O)C[C@H](OC(=O)[C@H](O)[C@@H](NC(=O)c4ccccc4)c4ccccc4)C(C)=C1C3(C)C)[C@]1(OC(C)=O)CO[C@@H]1C[C@@H]2O` [PACLITAXEL] showed an inhibition at 10 µM (OVCAR-4) of 113% and an inhibition at 10 µM (SK-OV-3) of 57.1%.
